Data on 24 molecules can be found in PubChem BioAssay AID330 (DTP/NCI, 2004).

This assay has as its system P388 leukemia ip, CD2F1 mice, survival T/C. The assay can be described thus: NCI In Vivo Anticancer Drug Screen. Data for tumor model P388 Leukemia (intraperitoneal) in CD2F1 (CDF1) mice. Particulars: endpoint: median survival time, higher = longer survival. The essentials: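 Mice carrying the transplanted tumor received test compound or vehicle. Survival was recorded in each group, and the value is the treated-group measurement divided by that of the vehicle-treated control group.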

Where [1] appears, read: dose: 50.0 mg/kg/injection, schedule: Q01DX005 (ip), vehicle: Klucel (hydroxypropylcellulose) (HPC).
The mark [2] stands for this setting: dose: 100.0 mg/kg/injection, schedule: Q01DX005 (ip), vehicle: Klucel (hydroxypropylcellulose) (HPC).
[3] abbreviates: dose: 200.0 mg/kg/injection, schedule: Q01DX005 (ip), vehicle: Klucel (hydroxypropylcellulose) (HPC).
Where [4] appears, read: dose: 50.0 mg/kg/injection, schedule: Q01DX009 (ip), vehicle: saline with Tween-80.
Setting [5] is: dose: 100.0 mg/kg/injection, schedule: Q01DX009 (ip), vehicle: saline with Tween-80.
Setting [6] is: dose: 200.0 mg/kg/injection, schedule: Q01DX009 (ip), vehicle: saline with Tween-80.
Where [7] appears, read: dose: 50.0 mg/kg/injection, schedule: Q01DX005 (ip), vehicle: saline with Tween-80.
[8] abbreviates: dose: 100.0 mg/kg/injection, schedule: Q01DX005 (ip), vehicle: saline with Tween-80.
Where [9] appears, read: dose: 60.0 mg/kg/injection, schedule: Q01DX005 (ip), vehicle: Klucel (hydroxypropylcellulose) (HPC).
Setting [10] is: dose: 120.0 mg/kg/injection, schedule: Q01DX005 (ip), vehicle: Klucel (hydroxypropylcellulose) (HPC).
Where [11] appears, read: dose: 240.0 mg/kg/injection, schedule: Q01DX005 (ip), vehicle: Klucel (hydroxypropylcellulose) (HPC).
Where [12] appears, read: dose: 6.25 mg/kg/injection, schedule: Q01DX009 (ip), vehicle: saline with Tween-80.
Setting [13] is: dose: 12.5 mg/kg/injection, schedule: Q01DX009 (ip), vehicle: saline with Tween-80.
The mark [14] stands for this setting: dose: 25.0 mg/kg/injection, schedule: Q01DX009 (ip), vehicle: saline with Tween-80.
[15] abbreviates: dose: 50.0 mg/kg/injection, schedule: Q01DX009 (ip), vehicle: Klucel (hydroxypropylcellulose) (HPC).
The mark [16] stands for this setting: dose: 100.0 mg/kg/injection, schedule: Q01DX009 (ip), vehicle: Klucel (hydroxypropylcellulose) (HPC).

Several values for one entry are separate records, joined by “and”; a condition that tells them apart may be missing. Identical values can stand only once. Inconclusive results and toxic doses are left out.

With `O=C1c2ccccc2-n2c1nc1ccc([N+](=O)[O-])cc1c2=O`, the T/C runs as follows: under setting [1], 103 % of control; under setting [2], 97 % of control; under setting [3], 94 % of control; (dose: 400.0 mg/kg/injection, schedule: Q04DX002 (ip), vehicle: Klucel (hydroxypropylcellulose) (HPC)) 96 % of control.

Regarding `O=C(O)c1c(-c2ccccc2)cnc2ccccc12`, the T/C is 95 % of control under setting [4], 89 % of control under setting [5] and 97 % of control under setting [6].

As for `CC(NNC(=S)N1CCCCCC1)c1ccc2ccccc2n1` (centres undefined), the T/C is, setting by setting: under setting [1], 111 % of control; under setting [2], 110 % of control and 122 % of control and 95 % of control; under setting [3], 112 % of control and 113 % of control.

For the molecule `Cn1nnnc1NNc1nnnn1C`, the T/C reads like this: under setting [7], 99 % of control; under setting [8], 99 % of control; (dose: 200.0 mg/kg/injection, schedule: Q01DX005 (ip), vehicle: saline with Tween-80) 99 % of control.

For `CC1(C)SC(C)(c2ccc[nH]2)N(c2nccs2)C1=O` (centres undefined), the T/C is, setting by setting: under setting [9], 106 % of control; under setting [10], 104 % of control; under setting [11], 102 % of control.

On to `CCCCCSc1ncnc2nc[nH]c12`, for which the T/C is, setting by setting: under setting [4], 100 % of control; under setting [5], 109 % of control; (dose: 100.05 mg/kg/injection, schedule: Q04DX003 (ip), vehicle: saline with Tween-80) 95 % of control; under setting [6], 104 % of control; (dose: 200.0 mg/kg/injection, schedule: Q04DX003 (ip), vehicle: saline with Tween-80) 104 % of control.

As for `CCCCCCCCCCCCCCCC[n+]1cccc(C(=O)NCO)c1`, the T/C under setting [12] is 100 % of control, the T/C under setting [13] was 104 % of control and the T/C under setting [14] is 104 % of control.

In the case of `CN(CCN(C)C(=S)Cl)C(=S)Cl`, the T/C was 99 % of control under setting [15]; 100 % of control under setting [16]; 96 % of control (dose: 200.0 mg/kg/injection, schedule: Q01DX009 (ip), vehicle: Klucel (hydroxypropylcellulose) (HPC)).

Take `CC1C=NNC1=O` (centres undefined): the T/C was 112 % of control under setting [12]; 120 % of control (dose: 125.0 mg/kg/injection, schedule: Q01DX009 (ip), vehicle: other); 100 % of control (dose: 125.0 mg/kg/injection, schedule: Q01DX009 (ip), vehicle: saline with Tween-80); 115 % of control (dose: 250.0 mg/kg/injection, schedule: Q01DX009 (ip), vehicle: other); 175 % of control (dose: 500.0 mg/kg/injection, schedule: Q01DX009 (ip), vehicle: other); 172 % of control (dose: 1000.0 mg/kg/injection, schedule: Q01DX009 (ip), vehicle: saline with Tween-80).

For the molecule `CC(C)CCC[C@@H](C)[C@H]1CC[C@H]2[C@@H]3CC=C4C[C@@H](OC(=O)Cc5ccc(N(CCCl)CCCl)cc5)CC[C@]4(C)[C@H]3CC[C@]12C`, the T/C by setting is: (dose: 50.0 mg/kg/injection, schedule: Q01DX010 (ip), vehicle: Klucel (hydroxypropylcellulose) (HPC)) 101 % of control; (dose: 100.0 mg/kg/injection, schedule: Q01DX010 (ip), vehicle: Klucel (hydroxypropylcellulose) (HPC)) 99 % of control; (dose: 200.0 mg/kg/injection, schedule: Q01DX010 (ip), vehicle: Klucel (hydroxypropylcellulose) (HPC)) 101 % of control; (dose: 400.0 mg/kg/injection, schedule: Q01DX010 (ip), vehicle: Klucel (hydroxypropylcellulose) (HPC)) 105 % of control; (dose: 800.0 mg/kg/injection, schedule: Q01DX010 (ip), vehicle: Klucel (hydroxypropylcellulose) (HPC)) 92 % of control.

As for `CCSc1nc2ccc(N=Cc3ccc(NS(=O)(=O)c4ccccc4)cc3O)cc2s1`, the T/C is, setting by setting: under setting [15], 116 % of control; under setting [16], 103 % of control.

For the molecule `COc1ccc(NC(=O)C#N)cc1`, the T/C (dose: 7.5 mg/kg/injection, schedule: Q01DX005 (ip), vehicle: saline with Tween-80) is 105 % of control and the T/C (dose: 15.0 mg/kg/injection, schedule: Q01DX005 (ip), vehicle: saline with Tween-80) is 113 % of control.

Consider `NC(CSP(=O)(O)O)=NCC12CC3CC(CC(C3)C1)C2`, for which the T/C by setting is: (dose: 3.12 mg/kg/injection, schedule: Q01DX009 (ip), vehicle: saline with Tween-80) 100 % of control; under setting [12], 104 % of control; under setting [13], 110 % of control.

With `Nc1cccc2cccnc12` (tested in a mixture with another compound), the T/C was 97 % of control under setting [12], 103 % of control under setting [13], 106 % of control under setting [14] and 104 % of control under setting [4].

As for `COc1cccc(C=O)c1OC(=O)Oc1ccccc1`, the T/C reads like this: (dose: 3.13 mg/kg/injection, schedule: Q01DX009 (ip), vehicle: distilled water + Tween-80) 111 % of control and 95 % of control; (dose: 6.25 mg/kg/injection, schedule: Q01DX009 (ip), vehicle: distilled water + Tween-80) 111 % of control; (dose: 12.5 mg/kg/injection, schedule: Q01DX009 (ip), vehicle: distilled water + Tween-80) 100 % of control and 104 % of control; (dose: 25.0 mg/kg/injection, schedule: Q01DX009 (ip), vehicle: distilled water + Tween-80) 109 % of control and 113 % of control and 114 % of control; (dose: 50.0 mg/kg/injection, schedule: Q01DX009 (ip), vehicle: distilled water + Tween-80) 100 % of control and 103 % of control.

Take `NC(=O)c1ccccc1Sc1ccccc1C(N)=O`: the T/C was 100 % of control (dose: 100.0 mg/kg/injection, schedule: Q01DX001 (ip), vehicle: saline with Tween-80); 100 % of control (dose: 200.0 mg/kg/injection, schedule: Q01DX001 (ip), vehicle: saline with Tween-80); 100 % of control (dose: 400.0 mg/kg/injection, schedule: Q01DX001 (ip), vehicle: saline with Tween-80).

For `COc1cc2ccc1-c1cc(ccc1O)CC1c3cc4c(cc3CCN1C)Oc1c(OC)cc3c(c1O4)C(C2)N(C)CC3` (centres undefined), the T/C was 99 % of control (dose: 7.5 mg/kg/injection, schedule: Q01DX005 (ip), vehicle: Klucel (hydroxypropylcellulose) (HPC)); 99 % of control (dose: 15.0 mg/kg/injection, schedule: Q01DX005 (ip), vehicle: Klucel (hydroxypropylcellulose) (HPC)); 92 % of control (dose: 30.0 mg/kg/injection, schedule: Q01DX005 (ip), vehicle: Klucel (hydroxypropylcellulose) (HPC)); 104 % of control under setting [9].

`C1CCNCC1.CC(=O)[CH-]C(=O)c1ccccc1.CC(=O)[CH-]C(=O)c1ccccc1.CC(=O)[CH-]C(=O)c1ccccc1.CC(=O)[CH-]C(=O)c1ccccc1.[Eu+3]`: the T/C under setting [16] was 98 % of control.

As to `COC1(OC)C2(Cl)CC3C4(C)OC(Cl)(C31Cl)C42Cl` (centres undefined), the T/C by setting is: under setting [9], 105 % of control; under setting [10], 101 % of control; under setting [11], 100 % of control.

Turning to `CC(C(O)c1ccc2cc(Br)c3ccccc3c2c1)N(C)C` (centres undefined), the T/C under setting [7] was 100 % of control and the T/C under setting [8] is 91 % of control.

For `C=Cn1c([N+](=O)[O-])cnc1/C=C/c1ccc(C(=O)OCCN(CC)CC)cc1`, the T/C by setting is: (dose: 100.0 mg/kg/injection, schedule: Q04DX002 (ip), vehicle: Klucel (hydroxypropylcellulose) (HPC)) 99 % of control; (dose: 200.0 mg/kg/injection, schedule: Q04DX002 (ip), vehicle: Klucel (hydroxypropylcellulose) (HPC)) 103 % of control.

Consider `CCCCCCCCOP(=O)(N1CC1C)N1CC1C` (centres undefined), for which the T/C by setting is: under setting [13], 113 % of control; (dose: 25.0 mg/kg/injection, schedule: Q04DX003 (ip), vehicle: saline) 109 % of control; under setting [4], 158 % of control and 168 % of control; (dose: 50.0 mg/kg/injection, schedule: Q04DX003 (ip), vehicle: saline) 113 % of control.

Regarding `C/C(=N\NC(=S)Nc1ccc(S(N)(=O)=O)cc1)c1ccccn1`, the T/C by setting is: (dose: 12.5 mg/kg/injection, schedule: Q01DX005 (ip), vehicle: saline with Tween-80) 94 % of control; (dose: 25.0 mg/kg/injection, schedule: Q01DX005 (ip), vehicle: saline with Tween-80) 108 % of control; under setting [7], 119 % of control; under setting [8], 96 % of control.

Take `Cc1ccc(S(=O)(=O)F)cc1C(=O)O`: the T/C (dose: 60.0 mg/kg/injection, schedule: Q01DX005 (ip), vehicle: saline with Tween-80) is 101 % of control and the T/C (dose: 120.0 mg/kg/injection, schedule: Q01DX005 (ip), vehicle: saline with Tween-80) was 93 % of control.
